Measured values published in patent US6043283A, “Tyramine compounds and their neuronal effects” (priority 1997, dated 2000).
pEC50: −log10 of the molar value. “Also recorded” adds a separate entry of the source. Structures can show the parent of a compound that is named as a salt. Where two headings read alike, the source gives them in different places. Ends that are not written are not given here.

How the values were obtained:
[1] = test system: Aβ1-42-stimulated microglia; assay type: cell-based, rat
Text: Briefly, hippocampal cells obtained from embryonic stage 18 rat fetuses were dispersed mechanically in the presence of 0.125% trypsin and plated onto poly-L-lysine coated glass coverslips in 24 well plates at 250,000 cells per well (resulting in adhering cell densities of about 1250 cells per mm^2) in chemically-defined N2 culture media containing 5% fetal bovine serum. Gradual reduction of serum began on day 10 in vitro with daily 1:1 volume replacements with chemically-defined media, until a final concentration of 0.6% serum was achieved. […] In order to eliminate microglia, cultures were exposed to saporin (sap; a ribosome-inactivating protein; Davis and Wiley, 1989) coupled to acetylated LDL (ac-LDL) at a concentration of 10 μg/ml for 12 hours. […] Cultures depleted of microglia were then exposed to test substances in the presence or absence of exogenous microglia (100,000 cells per culture). […] Controls included cultures without saporin-treatment, cultures without test substances, and cultures with test substances but lacking microglia.
(§1) On day 14 of culture, immediately following saporin treatment, test substances were added to the hippocampal cultures. Synthetic peptide were supplied as 1 mM stock solutions in 0.1 M phosphate buffered saline, pH 7.2, stored for at least 1 week at 4° C. before use. After 72 hours incubation, the cultures were fixed in 4% paraformaldehyde at room temperature for 18 hours and immuno-stained by overnight incubation with a mixture of anti-neurofilament antibodies (NF; SMI-311, 1:600; Stemberger Monoclonals, Inc.) plus anti-MAP-2 (Boehringer Mannheim, 184959; 1:600) at 4° C. in the presence of 2% horse serum and 0.3% triton X-100 to delineate both neuronal cell bodies and neurites. Astroglia were visualized using sheep anti-glial fibrillary acidic protein (GFAP, Sigma) as described by Giulian et al., 1989. Finally, to label all cell nuclei, the coverslips were exposed to 0.01% bisbenzimide (Hoechst 33258; Sigma) in PBS, pH 6.9, and rinsed in distilled water and mounted in glycerin. Immuno-labeled cells per field and nuclei per field were scored at 200X magnification using fluorescence microscopy. Data were expressed as % mean survival expressed in terms of parallel untreated control cultures after scoring at least 20 randomly selected fields for each of 3 coverslips.

[2] = test system: human microglia stimulated with S5; assay type: cell-based;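 also: drugs applied at 10 µM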
[3] = test system: NTox released by Aβ1-42-stimulated microglia (neuron killing); experiment: cells; assay type: cell-based, rat; conditions: for neuroprotective activity (structure/function): Example 14
Text: . Briefly, hippocampal cells obtained from embryonic stage 18 rat fetuses were dispersed mechanically in the presence of 0.125% trypsin and plated onto poly-L-lysine coated glass coverslips in 24 well plates at 250,000 cells per well (resulting in adhering cell densities of about 1250 cells per mm^2) in chemically-defined N2 culture media containing 5% fetal bovine serum. Gradual reduction of serum began on day 10 in vitro with daily 1:1 volume replacements with chemically-defined media, until a final concentration of 0.6% serum was achieved. […]; see FIG. 18). In order to eliminate microglia, cultures were exposed to saporin (sap; a ribosome-inactivating protein; Davis and Wiley, 1989) coupled to acetylated LDL (ac-LDL) at a concentration of 10 μg/ml for 12 hours. […] Cultures depleted of microglia were then exposed to test substances in the presence or absence of exogenous microglia (100,000 cells per culture). […]. Controls included cultures without saporin-treatment, cultures without test substances, and cultures with test substances but lacking microglia.
as §1
The procedures described above and by Giulian et al, 1996, provided for the identification of tyramine compounds as therapeutic agents for neurodegenerative diseases or disorders including, for example, Alzheimer's disease. Cells from the brain of fetal rats were grown in tissue cultures. Microglial populations within the cultures were controlled following the method described in Example 5 above. Known amounts of Aβ peptides coupled to microspheres were added to the culture. The Aβ spheres stimulated the microglia to release NTox, which in turn destroyed the neurons. The neurons in the cultures were monitored for survival by immuno-staining.
Generally, drug assays involve the addition of known concentrations of a test agent over a range of concentrations. After 72 hours, the experiment is stopped and the neurons are identified by immuno-staining. The data is expressed as % neuronal survival […]. Dose response curves are then used to estimate Effective Dose50 % (ED50) of neuroprotective agents. […].
In this experiment, about 65% of the neurons were destroyed by the Aβ-stimulated microglia. […] Other tyramine compounds, including tyrosine esters, were neuroprotective (FIG. 30).
Following the methods described herein, numerous compounds were examined to determine their neuroprotective activity. […]

NMDA receptor = experiment: whole cell current elicited by NMDA in Xenopus oocytes injected with NMDA R1 and R2 subunit cRNAs; assay type: cell-based; conditions: for effect on current elicited by NMDA: FIG. 34
Text: FIG. 34 is a graph shorting the % maximal current peak elicited by NMDA, octopamine and tyramine compounds in the presence of a given NMDA concentration. […].
The precise mechanism of NTox that leads to the destruction of neurons is only partially characterized. Based upon extensive testing with receptor antagonists, it has been discovered that two classes of neurotransmitter receptors are involved--the n-methyl D-aspartate (NMDA) class of […] receptors and the Muscarinic (M receptors) class of cholinergic receptors. […] […]. Further study to determine if tyramine compounds act upon the NMDA receptor itself involved expression of the NMDA receptor complex in Xenopus oocytes and measurement of ionic fluxes across the oocyte membrane that are elicited by NMDA. […] […]. […] Thus, tyramine compounds appear to have several actions, one of which is upon the NMDA receptor.

NTox = experiment: protection of neurons against isolated NTox applied directly; assay type: cell-based; conditions: isolated NTox; FIGS. 13, 32
Text: FIG. 32 is a graph showing the specificity of tyramine compounds to NTox. […].
Initial studies to characterize the neuroprotective effect of tyramine compounds employed microglia-neuron co-culture assays in the presence of Aβ or isolated senile plaques. Inhibition of neuron killing in […]--inhibition of microglial activation by Aβ or plaques; inhibition of NTox production and release by microglia; or inhibition of action of NTox upon neurons. […] Effective doses in the low nmolar range show the tyramine compounds to be very potent agents compared with low μmolar range of other neuroprotective drugs under development for neurological disorders.

microglia = experiment: inhibition of SpheresAβ1-42 binding to microglia; set-up: species or system rat; conditions: for inhibition of SpheresAβ1-42 binding by peptides: 10 μmoles/l, 4 hours, 37° C.; for inhibition of SpheresAβ1-42 binding by GAGs and scavenger receptor ligands: heparin sulfate 50 μg/ml, dextran sulfate 500 μg/ml, ac-LDL 200 μg/ml
Procedure: Spheresmal-BSA (which bind to scavenger receptors) or SpheresAβ1-42 were incubated with microglia for 4 hours following pre-treatment of cells with trypsin (5000 units/ml at 37° C. for 60 min followed by inactivation with soybean trypsin inhibitor), with heparinase (heparin lyase EC 4.2.2.7; two consecutive treatments each of 0.01 units/ml for 60 min), or with chondroitinase ABC (chondroitin ABC lyase EC 4.3.3.4; two consecutive treatments each of 0.02 units/ml for 60 min). […] Microglia mixed with hippocampal neurons were treated with combinations of β-D-xyloside (1 mm), heparinase (0.02 units/ml), or chondroitinase (0.04 units/ml) and then exposed to plaques.
Each well then received 250,000 SpheresAβ1-42 or Spheresmal-BSA in the presence or absence of Aβ peptides, GAGs, or scavenger receptor ligands. Binding assays were carried out at 37° C. for 4 hours after which coverslips were dipped 10 times in phosphate buffer and fixed with 4% buffered paraformaldehyde. Microsphere adherence to cells was scored at 200 magnification with phase/fluorescence microscopy. Data, expressed as % inhibition of sphere binding, was calculated from total number of spheres per field noted for control cultures receiving spheres only. Values are based upon at least 3 coverslips from 2 independent experiments. […] Washed spheres were resuspended in 0.2 M borate buffer (pH 8.5) in the presence of 300 μg Aβ or 400 μg BSA in 6% DMSO. After overnight mixing at room temperature, the spheres were washed extensively and blocked by 1 M glycine (pH 8.0) for 30 minutes.

[4] = test system: rat microglia / hippocampal neurons; conditions: rat microglia; mostly 1 μmole/l
rat microglia = experiment: binding of Aβ-coupled microspheres to microglia; conditions: 4 hours at 37° C. (72 h in FIG. 23)

NC(CCCCCP(=O)(O)O)C(=O)O (stereo not drawn) [AP7]
drug blockade of neuron killing, rat microglia [1]: prevented neuronal loss; also recorded: blocked neuron death | drug blockade of neuron killing, human microglia [2]: blocked neuron death

CC(=N)NCCC[C@H](N)C(=O)O [L-NIO, L-N-5-(1-imino-ethyl)-ornithine hydrochloride]
drug blockade of neuron killing, rat microglia ([1]; hydrochloride): no reduction of microglia-mediated neuron killing; also recorded: No protective effects were observed | drug blockade of neuron killing, human microglia ([2]; hydrochloride): no reduction of microglia-mediated neuron killing; also recorded: No protective effects were observed

N[C@@H](CCC(=O)N[C@@H](CS)C(=O)NCC(=O)O)C(=O)O [glutathione]
drug blockade of neuron killing, rat microglia [1]: no reduction of microglia-mediated neuron killing; also recorded: did not block microglial killing of neurons | drug blockade of neuron killing, human microglia [2]: no reduction of microglia-mediated neuron killing; also recorded: did not block microglial killing of neurons

CC(C(O)c1ccc(O)cc1)N1CCC(Cc2ccccc2)CC1 (stereo not drawn) [ifenprodil]
drug blockade of neuron killing, rat microglia [1]: prevented neuronal loss; also recorded: blocked neuron death | drug blockade of neuron killing, human microglia [2]: blocked neuron death

NCC(O)c1ccc(O)cc1 (stereo not drawn) [octopamine]
neuroprotective activity (structure/function) [3]: little or no neuroprotective activity | effect on current elicited by NMDA (NMDA receptor): does not alter the current measured | effect on current elicited by NMDA (NMDA receptor; listed as Octopamine): no effect

N[C@@H](Cc1ccc(O)cc1)C(=O)OCc1ccccc1 [tyrosine benzyl ester]
neuroprotective activity (structure/function) [3]: enhance neuroprotective effects | effect on current elicited by NMDA (NMDA receptor): inhibition of NMDA

CC(C)(C)OC(=O)[C@@H](N)Cc1ccc(O)cc1 [tyrosine t-butyl ester]
neuroprotective effect ([3]; Aβ1-42-stimulated microglia): most potent neuroprotectant tested | neuroprotective activity (structure/function) [3]: enhance neuroprotective effects | pEC50 ([3]; Rattus norvegicus, Aβ-stimulated microglia, 72 h, FIG. 31, read-out: ED50 (neuroprotection)): 8.70 | inhibition of killing action of NTox applied to neurons (NTox): killing action of NTox is inhibited | effect on NMDA-stimulated voltage change across oocyte membrane (NMDA receptor; 300 μM): blocked | effect on current elicited by NMDA (NMDA receptor): inhibition of NMDA

Aβ1-42Gln13Gln14: synthetic peptide Aβ1-42Gln13Gln14
inhibition of SpheresAβ1-42 binding by peptides (microglia): unable to block | induction of neurotoxic microglia / neuron killing [4]: unable to elicit neurotoxic responses

Aβ17-43-microspheres: Aβ17-43 coupled to fluorescent microspheres (LVFFAEDVGSNKGAIIGLMVGGVVIAT; also: coupled to fluorescent microspheres; UniProt P05067 688-714, looked up, fragment)
binding of peptide-coupled microspheres to microglia (rat microglia): no consistent association with microglia | binding of peptide-coupled microspheres to microglia (rat microglia; listed as Aβ17-43 coupled microspheres): not engulfed by microglia

Aβ36-42: Aβ peptide residues 36-42 (VGGVVIA; Amyloid-beta protein 42; UniProt P05067 707-713, looked up, fragment)
binding of peptide-coupled microspheres to microglia (rat microglia): little cell binding | inhibition of SpheresAβ1-42 binding by peptides (microglia): did not | blocking of Aβ1-42 induced microglial neurotoxicity by peptides ([1]; 10 μmoles/liter peptide, 1 μmole/liter Aβ1-42): did not

catalase
drug blockade of neuron killing, rat microglia [1]: no reduction of microglia-mediated neuron killing; also recorded: did not block microglial killing of neurons | drug blockade of neuron killing, human microglia [2]: no reduction of microglia-mediated neuron killing; also recorded: did not block microglial killing of neurons

chondroitin sulfate
inhibition of SpheresAβ1-42 binding by GAGs and scavenger receptor ligands (microglia): only heparin sulfate blocked; also recorded: not similar compounds

heparin sulfate
inhibition of SpheresAβ1-42 binding by GAGs and scavenger receptor ligands (microglia): blocked; also recorded: reduction of binding | inhibition of SpheresAβ1-42 binding by GAGs and scavenger receptor ligands (microglia; listed as heparan sulfate): block Aβ binding to microglia

vitamin E
drug blockade of neuron killing, rat microglia [1]: no reduction of microglia-mediated neuron killing; also recorded: did not block microglial killing of neurons | drug blockade of neuron killing, human microglia [2]: no reduction of microglia-mediated neuron killing; also recorded: did not block microglial killing of neurons
